# Experimental data as given in patent publication US8389541B2, “Inhibitors of protein tyrosine kinase activity” (MethylGene Inc., priority 2007, dated 2013).
# Read-outs that look alike come from different tables or passages of the source.
# Assays:
# Design in all cases: species or system mice
# H1437 tumor = experiment: In vivo solid tumor disease model, H1437; conditions: H1437, 15 mg/kg orally daily, 16 days
# Panc-1 tumor = experiment: In vivo solid tumor disease model, Panc-1; conditions: Panc-1, 20 mg/kg orally daily, 13 days
# U87MG tumor = experiment: In vivo solid tumor disease model, U87MG; conditions: Mus musculus, U-87 MG, po, 20 mg/kg orally daily, read-out: Tumor Growth Inhibition (%)
# Description: (§1) This test measures the capacity of compounds to inhibit solid tumor growth.
# (§2) Tumor xenografts are established in the flank of female athymic CD1 mice (Charles River Inc.), by subcutaneous injection of 1×106 U87, A431 or SKLMS cells/mouse. Once established, tumors are then serially passaged s.c. in nude mice hosts. Tumor fragments from these host animals are used in subsequent compound evaluation experiments. For compound evaluation experiments female nude mice weighing approximately 20 g are implanted s.c. by surgical implantation with tumor fragments of ˜30 mg from donor tumors. When the tumors are approximately 100 mm3 in size (˜7-10 days following implantation), the animals are randomized and separated into treatment and control groups. Each group contains 6-8 tumor-bearing mice, each of which is ear-tagged and followed individually throughout the experiment.
# (§3) Mice are weighed and tumor measurements are taken by calipers three times weekly, starting on Day 1. These tumor measurements are converted to tumor volume by the well-known formula (L+W/4)3 4/3π. The experiment is terminated when the control tumors reach a size of approximately 1500 mm^3. In this model, the change in mean tumor volume for a compound treated group/the change in mean tumor volume of the control group (non-treated or vehicle treated)×100 (ΔT/ΔC) is subtracted from 100 to give the percent tumor growth inhibition (% TGI) for each test compound. In addition to tumor volumes, body weight of animals is monitored twice weekly for up to 3 weeks.
# SKLMS tumor = experiment: In vivo solid tumor disease model, SKLMS; conditions: 20 mg/kg orally daily, 15 days
# Description: as §1, §2
# Mice are weighed and tumor measurements are taken by calipers three times weekly, starting on Day 1. These tumor measurements are converted to tumor volume by the well-known formula (L+W/4)3 4/3π. The experiment is terminated when the control tumors reach a size of approximately 1500 mm^3. […] In addition to tumor volumes, body weight of animals is monitored twice weekly for up to 3 weeks.
# MKN45 tumor = experiment: In vivo solid tumor disease model, MKN45; conditions: Mus musculus, MKN-45, po, MKN45, 20 mg/kg orally daily, read-out: Tumor Growth Inhibition (%)
# MNNG HOS tumor = experiment: In vivo solid tumor disease model, MNNG HOS; conditions: 20 mg/kg orally daily, 6 days
# A549 tumor = experiment: In vivo solid tumor disease model, A549; conditions: A549, 20 mg/kg orally daily, 12 days
# SKLMS40 tumor = experiment: In vivo solid tumor disease model, SKLMS40; conditions: Mus musculus, po, 312 h; SKLMS40, 20 mg/kg orally daily, 13 days; read-out: Tumor Growth Inhibition (%)
# Description: as §1, §2, §3
# MDAMB231 tumor = experiment: In vivo solid tumor disease model, MDAMB231; conditions: MDAMB231, 20 mg/kg orally daily, 13 days
# HCT116 tumor = experiment: In vivo solid tumor disease model, HCT116; conditions: HCT116, 20 mg/kg orally daily, 13 days
compound,measurement,setting,value
COCCNCc1ccc(-c2cc3nccc(Oc4ccc(NC(=S)NC(=O)Cc5ccc(F)cc5)c(F)c4)c3s2)nc1,Tumor Growth Inhibition (%),H1437 tumor,A (tumor growth inhibition of less than 25%)
COCCNCc1ccc(-c2cc3nccc(Oc4ccc(NC(=O)Nc5coc(C)c5)cc4F)c3s2)nc1,Tumor Growth Inhibition (%),Panc-1 tumor,D D D (tumor growth inhibition of ≧75%)
same,inhibition in vivo at 20 mg/kg,"U87MG tumor; 312 h, 13 days",≥ 75%
same,Tumor Growth Inhibition (%),SKLMS tumor,D D D (tumor growth inhibition of ≧75%)
COCCNCc1ccc(-c2cc3nccc(Oc4ccc(NC(=O)C5(C(=O)Nc6ccc(F)cc6)CC5)cc4F)c3s2)o1,Tumor Growth Inhibition (%),Panc-1 tumor,D (tumor growth inhibition of ≧75%)
COCCNCc1ccc(-c2cc3nccc(Oc4ccc(NC(=O)NNC(=O)c5ccccc5)cc4F)c3s2)nc1,Tumor Growth Inhibition (%),Panc-1 tumor,A (tumor growth inhibition of less than 25%)
COCCNCc1cccc(-c2cc3nccc(Oc4ccc(NC(=S)NC(=O)Cc5ccc(F)cc5)cc4F)c3s2)c1 [drawing 360],inhibition in vivo at 20 mg/kg,"MKN45 tumor; 168 h, 7 days",50 to 75%
same,Tumor Growth Inhibition (%),MNNG HOS tumor,A (tumor growth inhibition of less than 25%)
COCCNCc1ccc(-c2cc3nccc(Oc4ccc(NC(=O)CC(=O)N(C)c5ccccc5)cc4F)c3s2)nc1 [drawing 373],inhibition in vivo at 20 mg/kg,"MKN45 tumor; 312 h, 13 days",50 to 75%
same,Tumor Growth Inhibition (%),A549 tumor,C (tumor growth inhibition of ≧50% but <75%)
same,inhibition in vivo at 20 mg/kg,"U87MG tumor; 288 h, 12 days",25 to 50%
same,inhibition in vivo at 20 mg/kg,SKLMS40 tumor,< 25%
COCCNCc1ccc(-c2cc3nccc(Oc4ccc(NC(=O)C5(C(=O)Nc6ccccc6)CC5)cc4F)c3s2)nc1 [drawing 374],inhibition in vivo at 20 mg/kg,"MKN45 tumor; 312 h, 13 days",≥ 75%
same,Tumor Growth Inhibition (%),A549 tumor,C (tumor growth inhibition of ≧50% but <75%)
same,inhibition in vivo at 20 mg/kg,"U87MG tumor; 288 h, 12 days",≥ 75%
same,inhibition in vivo at 20 mg/kg,SKLMS40 tumor,50 to 75%
COCCNCc1ccc(-c2cc3nccc(Oc4ccc(NC(=O)C5(C(=O)Nc6ccc(F)cc6)CC5)cc4F)c3s2)nc1 [drawing 376],inhibition in vivo at 20 mg/kg,"U87MG tumor; 288 h, 12 days",≥ 75%
same,inhibition in vivo at 20 mg/kg,SKLMS40 tumor,≥ 75%
same,Tumor Growth Inhibition (%),MDAMB231 tumor,D D D (tumor growth inhibition of ≧75%)
COCCNCc1ccc(-c2cc3nccc(Oc4ccc(NC(=O)Nc5cc(C(C)(C)C)on5)cc4F)c3s2)nc1 [drawing 379],Tumor Growth Inhibition (%),HCT116 tumor,C (tumor growth inhibition of ≧50% but <75%)
